Experimental data from patent publication US9688702B2, “Alpha-amino boronic acid derivatives, selective immunoproteasome inhibitors” (Ares Trading S.A, priority 2011, dated 2017).

Tests used:
[1] = target: LMP7 (purified human immuno proteasome) (Homo sapiens, UniProt P28062); experiment: Determination of LMP7 activity (fluorescence intensity assay, Suc-LLVY-AMC); format: biochemical; conditions: for IC50: 40 μM Suc-LLVY-AMC, 37° C.
How it was run: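 Purified human immunoproteasome (0.5 nM or 0.25 nM) preincubated 30 min at 37 °C with compounds (10 μM to 38 pM) in 50 mM Tris pH 7.4, 0.03% SDS. Suc-LLVY-AMC added at 40 μM; after 90 min at 37 °C, fluorescence read at ex 350/em 450 nm.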

[2] = target: Beta5 (purified human constitutive proteasome) (Homo sapiens, UniProt P28074); experiment: Determination of Beta5 activity (fluorescence intensity assay, Suc-LLVY-AMC); format: biochemical; conditions: purified human constitutive proteasome 1.0 nM, 40 μM Suc-LLVY-AMC, 37° C.
How it was run: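 Purified human constitutive proteasome (1.0 nM) was preincubated 30 min at 37 °C with compounds (10 μM to 38 pM) in 50 mM Tris pH 7.4, 0.03% SDS. Suc-LLVY-AMC (40 μM) was then added and fluorescence (ex 350/em 450 nm) read after 90 min at 37 °C.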

[3] = purified human immuno proteasome 0.5 nM

Selectivity LMP7 vs Beta5 [1] | IC50 [1, 3] | IC50 [2] | IC50 ([1]; purified human immuno proteasome 0.25 nM (examples 79, 80, 83, 84, 85, 87, 88, 89, 90, 91, 93, 94, 96, 97, 101 and 110)) | Structure (SMILES)
++ (++: 10 < Selectivity < 30) | 50 to 500 nM | 500 to 5000 nM |  | COc1cc(C[C@H](NC(=O)CCn2cnc3ccccc32)B(O)O)ccc1C [Example 72, (R)-(1-(3-(1H-benzo[d]imidazol-1-yl)propanamido)-2-(3-methoxy-4-methylphenyl)ethyl)boronic acid]
+++ (+++: Selectivity > 30) | < 50 nM | 50 to 500 nM |  | CCc1cccc(C[C@H](NC(=O)CCn2cc(-c3cccc(OC)c3)nn2)B(O)O)c1 [Example 74, (R)-(2-(3-ethylphenyl)-1-(3-(4-(3-methoxyphenyl)-1H-1,2,3-triazol-1-yl)propanamido)ethyl)boronic acid]
++ (++: 10 < Selectivity < 30) | < 50 nM | < 50 nM |  | Cn1ncc2cc(C[C@H](NC(=O)CCn3cc(-c4ccccc4)nn3)B(O)O)ccc21 [Example 103, (R)-(2-(1-methyl-1H-indazol-5-yl)-1-(3-(4-phenyl-1H-1,2,3-triazol-1-yl)propanamido)ethyl)boronic acid]
++ (++: 10 < Selectivity < 30) |  | < 50 nM | < 50 nM | O=C(CCn1cnc2ccccc21)N[C@@H](Cc1ccc2ccccc2c1)B(O)O [Example 97, (R)-(1-(3-(1H-benzo[d]imidazol-1-yl)propanamido)-2-(naphthalen-2-yl)ethyl)boronic acid]
+ (+: Selectivity < 10) | < 50 nM | 50 to 500 nM |  | O=C(CCn1c(=O)sc2ccccc21)N[C@@H](Cc1ccsc1)B(O)O [Example 34, [(1R)-1-{[3-(2-oxo-1,3-benzothiazol-3(2H)-yl)propanoyl]amino}-2-(3-thienyl)ethyl]boronic acid]
++ (++: 10 < Selectivity < 30) | < 50 nM | < 50 nM |  | Cn1ncc2cc(C[C@H](NC(=O)CCn3c(=O)sc4ccccc43)B(O)O)ccc21 [Example 102, (R)-(2-(1-methyl-1H-indazol-5-yl)-1-(3-(2-oxobenzo[d]thiazol-3(2H)-yl)propanamido)ethyl)boronic acid]
